Measured values from patent US6362369B1, “Phthalic acid diamide derivatives fluorine-containing aniline compounds as starting material, agricultural and horticultural insecticides, and a method for application of the insecticides” (Nihon Nohyaku Co., Ltd., priority 1997, dated 2002).

Key:
Type in all cases: in vivo
[1] = test system: diamondback moth (Plutella xylostella); experiment: Insecticidal effect on diamondback moth (Test Example 1); conditions: for Insecticidal effect, Test Example 1 / Insecticidal effect (Test Example 1), judged from mortality: diamondback moth; for Insecticidal effect on diamondback moth (Test Example 1), judged grade: mortality judged according to the criterion shown in Test Example 1; for Insecticidal effect (Test Example 1), judged from mortality: judged by the criterion of Test Example 1
Method in brief: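 Triplicate groups of 10 insects were scored: six days after immersion of oviposited Chinese cabbage seedlings and holding at 25 °C post air-drying, hatched larvae were counted. Mortality derived from these counts and insecticidal effect judged by a set criterion.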

[2] = test system: rice leafroller (Cnaphalocrocis medinalis); experiment: Insecticidal effect on rice leafroller (Test Example 3); conditions: 500 ppm, 25° C., humidity 70%; for Insecticidal effect, Test Example 3: rice lamina immersed; for Insecticidal effect, Test Example 3 / Insecticidal effect on rice leafroller (Test Example 3), judged grade: four days after inoculation; for Insecticidal effect on rice leafroller (Test Example 3), judged grade / Insecticidal effect (Test Example 3), judged from mortality: rice lamina dip; for Insecticidal effect on rice leafroller (Test Example 3), judged grade: third-instar larvae; for Insecticidal effect (Test Example 3), judged from mortality: 4 days after inoculation
Method in brief: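 Insecticidal effect is judged by a predefined criterion from dead/alive counts four days after infesting air-dried lamina with third-instar larvae, kept on moistened filter paper at 25° C, 70% humidity.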

[3] = test system: common cutworm (Spodoptera Litura); experiment: Insecticidal effect on common cutworm (Test Example 2); conditions: 500 ppm, 25° C.; for Insecticidal effect, Test Example 2: cabbage leaf immersed; for Insecticidal effect, Test Example 2 / Insecticidal effect on common cutworm (Test Example 2), judged grade: eight days after inoculation; for Insecticidal effect on common cutworm (Test Example 2), judged grade / Insecticidal effect (Test Example 2), judged from mortality: cabbage leaf dip; for Insecticidal effect on common cutworm (Test Example 2), judged grade: second-instar larvae; for Insecticidal effect (Test Example 2), judged from mortality: 8 days after inoculation
Method in brief: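 2nd-instar larvae on air-dried treatment, closed dish, 25° C; dead/alive counted at day 8. Mortality calculated, graded by criterion. 3 × 10 insects.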

[4] = mortality judged by criterion of Test Example 1
[5] = rice leafroller third-instar larvae
[6] = common cutworm second-instar larvae
[7] = judged by the mortality criterion of Test Example 1
[8] = third-instar larvae of rice leafroller
[9] = second-instar larvae of common cutworm

| SMILES | Insecticidal effect, Test Example 1 [1, 4] | Insecticidal effect, Test Example 3 [2, 5] | Insecticidal effect, Test Example 2 [3, 6] | Insecticidal effect, Test Example 1 [1, 7] | Insecticidal effect, Test Example 3 [2, 8] | Insecticidal effect, Test Example 2 [3, 9] | further results |
| --- | --- | --- | --- | --- | --- | --- | --- |
| Cc1cc(C(F)(F)C(F)(F)F)ccc1N(C)C(=O)c1cccc(I)c1C(=O)N(C)C(C)C [compound 1121] | A (100) | A (100) | A (100) | – | – | – | – |
| CC(C)NC(=O)c1c(Cl)cccc1C(=O)Nc1ccc(C(F)(F)C(F)(F)F)cc1Cl [compound 1383] | A (100) | A (100) | A (100) | – | – | – | – |
| CC(C)NC(=O)c1c(Cl)cccc1C(=O)Nc1ccc(SC(F)(F)C(F)F)cc1 [compound 102] | – | – | – | A (100) | A (100) | D (79-50) | – |
| Cc1cc(OC(F)(F)F)ccc1NC(=O)c1cccc(F)c1C(=O)NC(C)C [compound 510] | – | – | – | – | – | – | Insecticidal effect on diamondback moth (Test Example 1), judged grade [1]: A (100); Insecticidal effect on rice leafroller (Test Example 3), judged grade [2]: A (100); Insecticidal effect on common cutworm (Test Example 2), judged grade [3]: B (99-90) |
| CCN(CC)C(=O)c1c(OC(F)(F)F)cccc1C(=O)Nc1ccc(C(F)(F)C(F)(F)F)cc1C [compound 1193] | A (100) | A (100) | A (100) | – | – | – | – |
| CC(C)NC(=O)c1c(I)cccc1C(=O)Nc1cc2c(cc1Cl)OC(F)(F)C(F)(F)O2 [compound 1625] | – | – | – | – | – | – | Insecticidal effect (Test Example 1), judged from mortality [1]: A (100); Insecticidal effect (Test Example 3), judged from mortality [2, 8]: A (100); Insecticidal effect (Test Example 2), judged from mortality [3, 9]: A (100) |
| Cc1cc(C(F)(F)C(F)(F)F)ccc1NC(=O)c1cccc(Cl)c1C(=O)NCc1ccccc1 [compound 1307] | A (100) | A (100) | A (100) | – | – | – | – |
| Cc1cc(OC(F)(F)F)ccc1NC(=O)c1ccc(Cl)c(Cl)c1C(=O)NC(C)C [compound 1221] | A (100) | A (100) | A (100) | – | – | – | – |
| CCN(CC)C(=O)c1c(I)cccc1C(=O)Nc1ccc(C(O)(C(F)(F)F)C(F)(F)F)cc1 [compound 1130] | A (100) | A (100) | A (100) | – | – | – | – |
| Cc1cc(C(F)(F)C(F)(F)F)ccc1NC(=O)c1cccc(I)c1C(=O)NC(C)(C)CBr [compound 1647] | – | – | – | – | – | – | Insecticidal effect (Test Example 1), judged from mortality [1]: A (100); Insecticidal effect (Test Example 3), judged from mortality [2, 8]: A (100); Insecticidal effect (Test Example 2), judged from mortality [3, 9]: A (100) |
| CCN(CC)C(=O)c1c(I)cccc1C(=O)Nc1ccc(-c2ccc(F)cc2)cc1C [compound 1614] | – | – | – | – | – | – | Insecticidal effect (Test Example 1), judged from mortality [1]: A (100); Insecticidal effect (Test Example 3), judged from mortality [2, 8]: A (100); Insecticidal effect (Test Example 2), judged from mortality [3, 9]: C (89-80) |
| Cc1cc(OC(F)F)ccc1NC(=O)c1cccc(I)c1C(=O)NC(C)C [compound 387, N^1-(4-difluoromethoxy-2-methylphenyl)-3-iodo-N^2-isopropylphthalic acid diamide] | – | – | – | A (100) | A (100) | A (100) | – |
| Cc1cc(OC(F)F)c(Cl)cc1NC(=O)c1c(I)cccc1C(=O)NC(C)C [compound 470] | – | – | – | – | – | – | Insecticidal effect on diamondback moth (Test Example 1), judged grade [1]: A (100); Insecticidal effect on rice leafroller (Test Example 3), judged grade [2]: C (89-80); Insecticidal effect on common cutworm (Test Example 2), judged grade [3]: C (89-80) |
| C#CC(C)(C)NC(=O)c1c(Cl)cccc1C(=O)Nc1ccc(C(F)(F)C(F)(F)F)cc1C [compound 1466] | – | – | – | – | – | – | Insecticidal effect (Test Example 1), judged from mortality [1]: A (100); Insecticidal effect (Test Example 3), judged from mortality [2, 8]: A (100); Insecticidal effect (Test Example 2), judged from mortality [3, 9]: A (100) |
| CC(C)NC(=O)c1c(Cl)cccc1C(=O)Nc1ccc2c(c1)OC(F)(F)C2(F)F [compound 973] | A (100) | A (100) | A (100) | – | – | – | – |
| Cc1cc(OC(F)(F)C(F)(F)Br)ccc1NC(=O)c1cccc(F)c1C(=O)NC(C)C [compound 503] | – | – | – | – | – | – | Insecticidal effect on diamondback moth (Test Example 1), judged grade [1]: A (100); Insecticidal effect on rice leafroller (Test Example 3), judged grade [2]: A (100); Insecticidal effect on common cutworm (Test Example 2), judged grade [3]: B (99-90) |
| Cc1cc(C(F)(F)C(F)(F)F)ccc1NC(=O)c1cccc(Cl)c1C(=O)NCc1cccc(Cl)c1Cl [compound 1353] | A (100) | A (100) | A (100) | – | – | – | – |
| CC(C)(C)NC(=O)c1c(I)cccc1C(=O)Nc1ccc2oc(C(F)(F)C(F)(F)F)nc2c1 [compound 1143] | A (100) | A (100) | C (89-80) | – | – | – | – |

| SMILES | Insecticidal effect, Test Example 1 [1, 4] | Insecticidal effect, Test Example 3 [2, 5] | Insecticidal effect, Test Example 2 [3, 6] | Insecticidal effect, Test Example 1 [1, 7] | Insecticidal effect, Test Example 3 [2, 8] | Insecticidal effect, Test Example 2 [3, 9] | further results |
| --- | --- | --- | --- | --- | --- | --- | --- |
| Cc1cc(OC(F)F)ccc1NC(=O)c1ccccc1C(=O)NC(C)(C)C [compound 1018] | A (100) | A (100) | D (79-50) | – | – | – | – |
| Cc1cc(OC(F)(F)C(F)C(F)(F)F)ccc1NC(=O)c1cccc(I)c1C(=O)NC(C)C (stereo not drawn) [compound 393] | – | – | – | A (100) | A (100) | A (100) | – |
| Cc1cc(OCC(F)(F)C(F)F)ccc1NC(=O)c1cccc(Br)c1C(=O)NC(C)C [compound 283] | – | – | – | A (100) | A (100) | A (100) | – |
| CC(C)NC(=O)c1cccc(I)c1C(=O)Nc1ccc(OC(F)F)c(C(F)(F)F)c1 [compound 471] | – | – | – | – | – | – | Insecticidal effect on diamondback moth (Test Example 1), judged grade [1]: A (100); Insecticidal effect on rice leafroller (Test Example 3), judged grade [2]: A (100); Insecticidal effect on common cutworm (Test Example 2), judged grade [3]: A (100) |
| CC(C)NC(=O)c1c(I)cccc1C(=O)Nc1ccc(SC(F)(F)C(F)F)cc1 [compound 356] | – | – | – | A (100) | A (100) | A (100) | – |
| CSc1cccc(C(=O)Nc2cccc(Cl)c2C)c1C(=O)NC(C)C [compound 780] | – | – | – | – | – | – | Insecticidal effect on diamondback moth (Test Example 1), judged grade [1]: A (100); Insecticidal effect on rice leafroller (Test Example 3), judged grade [2]: A (100); Insecticidal effect on common cutworm (Test Example 2), judged grade [3]: A (100) |
| CC(C)NC(=O)c1ccccc1C(=O)Nc1ccc(OC(F)(F)C(F)OC(F)(F)C(F)(F)C(F)(F)F)cc1 (stereo not drawn) [compound 30] | – | – | – | A (100) | A (100) | A (100) | – |
| Cc1cc(C(F)(F)F)ccc1NC(=O)c1c(Br)cccc1C(=O)NC(C)C [compound 316] | – | – | – | A (100) | A (100) | A (100) | – |
| Cc1cc(C(F)(F)C(F)(F)F)ccc1NC(=O)c1cccc(Cl)c1C(=O)NC(C)c1ccc(Cl)cc1 (stereo not drawn) [compound 1366] | A (100) | A (100) | A (100) | – | – | – | – |
| CC(C)(C)NC(=O)c1ccccc1C(=O)Nc1ccc2c(c1)OC(F)(F)C(F)O2 (stereo not drawn) [compound 1165] | A (100) | A (100) | A (100) | – | – | – | – |
| CC(C)NC(=O)c1c(Cl)cccc1C(=O)Nc1ccc(C=C(Cl)Cl)cc1 [compound 915] | – | – | – | – | – | – | Insecticidal effect on diamondback moth (Test Example 1), judged grade [1]: A (100); Insecticidal effect on rice leafroller (Test Example 3), judged grade [2]: A (100); Insecticidal effect on common cutworm (Test Example 2), judged grade [3]: A (100) |
| Cc1c(Cl)cccc1NC(=O)c1cccc(F)c1C(=O)NC(C)C [compound 489] | – | – | – | – | – | – | Insecticidal effect on diamondback moth (Test Example 1), judged grade [1]: A (100); Insecticidal effect on rice leafroller (Test Example 3), judged grade [2]: A (100); Insecticidal effect on common cutworm (Test Example 2), judged grade [3]: A (100) |
| CC(C)NC(=O)c1c(I)cccc1C(=O)Nc1ccc(OC(F)(F)F)cc1Br [compound 406] | – | – | – | A (100) | A (100) | A (100) | – |
| Cc1cc(OC(F)(F)Br)ccc1NC(=O)c1cccc(Br)c1C(=O)NC(C)C [compound 290] | – | – | – | A (100) | A (100) | A (100) | – |
| Cc1cc(Cl)ccc1NC(=O)c1ccccc1C(=O)NC(C)C [compound 50] | – | – | – | A (100) | A (100) | A (100) | – |
| Cc1cc(OC(F)F)ccc1NC(=O)c1cccc([N+](=O)[O-])c1C(=O)NC(C)C [compound 696, N^1-(4-difluoromethoxy-2-methylphenyl)-N^2-isopropyl-3-nitrophthalic acid diamide] | – | – | – | – | – | – | Insecticidal effect on diamondback moth (Test Example 1), judged grade [1]: A (100); Insecticidal effect on rice leafroller (Test Example 3), judged grade [2]: A (100); Insecticidal effect on common cutworm (Test Example 2), judged grade [3]: A (100) |
| CCOCCNC(=O)c1c(I)cccc1C(=O)Nc1ccc(C(F)(F)C(F)(F)F)cc1C [compound 983] | A (100) | A (100) | A (100) | – | – | – | – |
| Cc1ccc(Cl)cc1NC(=O)c1cccc(I)c1C(=O)NC(C)C [compound 363] | – | – | – | A (100) | A (100) | A (100) | – |
